Reference: publication PMC8672821, “Investigating 3,3-diaryloxetanes as potential bioisosteres through matched molecular pair analysis” (RSC Medicinal Chemistry, 2021)

How the values were obtained:
[1] = Clearance by human liver microsomes (HLM) stability assay; type: in vitro ADME; settings: pH 7.4; pooled human liver microsomes, 1 µM test compound, 37 °C
Protocol: (§1) HLM Assay: The high throughput human microsomal stability assay was performed in a 384 -well format.
All liquid handling and incubation were conducted with a Biomek FX, equipped with one 3 position Mecour heat exchangers. Pooled human liver microsomes of 50 don ors (Lot: HLM-103) were purchased from BioIVT. Each incubation contained test compound (1 µM), human liver microsomes ([…] CYP protein equivalent to 0.806 mg/mL protein concentration), NADPH (1.3 mM), MgCl 2 (3.3 mM) and potassium phosphate buffer (100 mM at pH 7.4). The final reaction volume was […] containing 0.01% DMSO. The incubations were conducted at 37 °C at various time points (1, 4, 7, 12, 20, 25, 45, 60 min). Cold acetonitrile with mass spectrometry (MS) internal standard (IS, CP-628374) was then added to quench the reaction.
The plates were centrifuged at 3000 rpm for 10 min at 4 °C (Sorvall RC 3C Plus, Thermo Scienti fic, Waltham, MA). The water layer was transferred to the 384 -well plate, sealed and subsequently analy sed using LCeMS/MS. Control plates were prepared in the same manner without adding the NADPH cofactor to monitor any non-CYP catalysed decline. Propranolol (2D6, 1A2 and 2C19 substrate), quinidine (3A4), diclofenac (2C9), verapamil (3A4, 1A2, 2C), amitriptyline (2D6, 2C19) and naloxone (UGT2B7) were used as positive controls on each plate to monitor the activities of the various CYPs in the assay. […]

[2] = elogD, automated reversed phase-HPLC logD (pH 7.4); type: physicochemical; settings: Supelcosil LC-ABZ column
Protocol: (§2) elogD: An automated reversed phase-HPLC method developed by Lombardo et al. was used for logD (pH 7.4) measurements. All the chromatographic runs were performed on a HP -1100 HPLC ChemStation at the ambient temperature. The HPLC columns used were Supelcosil LC-ABZ, 5 µm, 4.6 mm × 50 mm. A diode array detector was used to monitor signals at 210, 225, 245, and 310 nm. The mobile phase consisted of 15−75% of A and 85−25% of B.
(§3) Mobile phase A: methanol with addition of 0.25% 1-octanol.
(§4) Mobile phase B: 20 mM of MOPS (morpholine−propane−sulfonic acid) buffer prepared in octanol saturated water and 0.25% of n-decylamine.
(§5) Samples were prepared in 1:1 mixture of methanol/water at 100 μg/mL concentration.
The retention of each compound is obtained at three different concentrations of methanol in the mobile phase and extrapolated to 0% methanol (100% water). […]

[3] = RRCK passive permeability assay; type: in vitro ADME, canine; settings: dog, MDCK; read-out: RRCK cell permeability
Protocol: Aqueous buffer preparation: pH 3: 50 µL of 1N hydrochloric acid was added to 500 mL of deionized water.
The solution was titrated with 1N hydrochloric acid to pH 3, and back titrated with 1N sodium hydroxide. pH 7.4: 100 mM sodium phosphate buffer is made by adding 56.4 g of dibasic sodium phosphate and 10.3 g of monobasic sodium phosphate to 4 L of deionized water. 250 µL of 100 mM sodium phosphate buffer was diluted with 250 µL of deionized water. The solution was titrated with 1N hydrochloric acid to pH 7.4, and back titrated with 1N sodium hydroxide. pH 10: Fisher Scientific pH 10 buffer (SB116-500) containing potassium hydroxide, potassium carbonate, and potassium borate. pH 12.8: 30 mL of 1N NaOH was added to 200 mL of deionized water. The solution was titrated with 1N sodium hydroxide to pH 12.8, and back titrated with 1N hydrochloric acid.
RRCK: Passive permeability assay were carried out using low‐efflux MDCKII cells (Madin–Darby canine kidney cell line) also called Ralph Russ Canine Kidney cell (RRCK).11

[4] = Chemical (pH) stability assay; type: physicochemical; settings: low pH (1.2), 37 °C, up to 4 h
Protocol: as §2, §3, §4, §5
The retention of each compound is obtained at three different concentrations of methanol in the mobile phase and extrapolated to 0% methanol (100% water).
as §1
All liquid handling and incubation were conducted with a Biomek FX, equipped with one 3 position Mecour heat exchangers. Pooled human liver microsomes of 50 don ors (Lot: HLM-103) were purchased from BioIVT. […]
Assay ready plated: Plate containing 6µL at 30 mM of test compounds in 96 deep well plate (volume = 600 µL). […]

Compound | chromatographic logD [2] | logD (sfLogD) | melting point [°C] | further results
COc1ccc(C(=O)c2ccc(O)c(C)c2)cc1 [C00006] |  |  |  | microsomal CLint at 1 h, 1 µM [1]: 77.4 µL/min/mg
COc1ccc(C(=O)c2ccc(N3CCOCC3)c(C)c2)cc1 [8b] | 3.9 | 3.06 |  | 
Cc1cc(C(=O)c2cn(C)c3ccccc23)ccc1OC1CNC1 [C00004] |  |  |  | microsomal CLint at 1 µM [1]: < 7 µL/min/mg
COc1ccc(C2(c3ccc(O)c(C)c3)COC2)cc1 [C00005] |  |  |  | microsomal CLint at 1 h, 1 µM [1]: 80 µL/min/mg
Cc1cc(Cc2cn(C)c3ccccc23)ccc1O [5c] | 4.78 | 2.79 | 77 to 79 | Papp [3]: 0.1 ×10⁻⁶ cm/s
Cc1cc(C2(c3cn(C)c4ccccc34)COC2)ccc1-c1cnc(C(F)(F)F)nc1 [C00009] |  |  |  | microsomal CLint at 1 h, 1 µM [1]: 8.5 µL/min/mg
Cc1cc(C2(c3cn(C)c4ccccc34)CCC2)ccc1OC1CNC1 [1e] | 3.2 | 2.81 |  | 
Cc1cc(C(C)(C)c2cn(C)c3ccccc23)ccc1O [5d] | 5.05 | 3.72 | 110 to 112 | 
Cc1cc(C2(c3cn(C)c4ccccc34)COC2)ccc1-c1cnc(C(F)(F)F)nc1 [4a] | 5.1 |  | 181 to 182 | 
Cc1cc(C(=O)c2cn(C)c3ccccc23)ccc1OC1CNC1 [1b] |  | 1.07 | 70 to 75 | 
COc1ccc(C2(c3ccc(-c4c[nH]nc4C(F)(F)F)c(C)c3)COC2)cc1 [9a] | 4.5 | 4.62 | 175 to 177 | 
Cc1cc(C2(c3cn(C)c4ccccc34)COC2)ccc1OC1CNC1 [C00003] |  |  |  | microsomal CLint at 1 µM [1]: < 7 µL/min/mg
Cc1cc(C(=O)c2cn(C)c3ccccc23)ccc1-c1cnc(C(F)(F)F)nc1 [C00010] |  |  |  | microsomal CLint at 1 µM [1]: < 7 µL/min/mg
COc1ccc(C2(c3ccc(N4CCOCC4)c(C)c3)COC2)cc1 [8a] | 3.68 | 3.47 | 133 to 135 | 
Cc1cc(C2(c3cn(C)c4ccccc34)COC2)ccc1OC1CNC1 [1a] | 2.13 | 1.37 | 100 to 103 | 
COc1ccc(C2(c3ccc(OC4CNC4)c(C)c3)COC2)cc1 [7a] | 1.43 | 1.06 | 108 to 115 | 
Cc1cc(C(=O)c2cn(C)c3ccccc23)ccc1O [5b] | 3.3 | 3.33 | 239 to 241 | chemical stability (% compound remaining), in words [4]: poorer stability at low pH

Compound | chromatographic logD [2] | logD (sfLogD) | melting point [°C] | further results
COc1ccc(C(=O)c2ccc(OC3CNC3)c(C)c2)cc1 [7b] | 1.74 | 1.21 | 99 to 103 | 
Cc1cc(C(=O)c2cn(C)c3ccccc23)ccc1O [C00002] |  |  |  | microsomal CLint at 1 h, 1 µM [1]: 18 µL/min/mg
Cc1cc(Cc2cn(C)c3ccccc23)ccc1OC1CNC1 [1c] | 3.1 | 1.68 | 80 to 82 | 
Cc1cc(C2(c3cn(C)c4ccccc34)COC2)ccc1Oc1ccccn1 [3a] | 4.6 | 4.36 | 175 to 177 | 
Cc1cc(C2(c3cn(C)c4ccccc34)COC2)ccc1O [5a] | 3.73 | 3.63 | 233 to 235 | chemical stability (% compound remaining), in words [4]: poorer stability at low pH
Cc1cc(C(C)(C)c2cn(C)c3ccccc23)ccc1OC1CNC1 [1d] | 2.9 | 2.59 | 75 to 80 | 
COc1ccc(C(=O)c2ccc(O)c(C)c2)cc1 [10b] |  | 3.49 | 186 to 187 | 
COc1ccc(C(=O)c2ccc(OC3CNC3)c(C)c2)cc1 [C00008] |  |  |  | microsomal CLint at 1 h, 1 µM [1]: 75 µL/min/mg
Cc1cc(C2(c3cn(C)c4ccccc34)CCC2)ccc1O [5e] | 5.4 | 4.4 | 120 to 121 | Papp [3]: 0.1 ×10⁻⁶ cm/s
Cn1cc(C2(c3ccc(OC4CNC4)cc3)COC2)c2ccccc21 [2a] | 1.7 | 0.99 |  | 
Cc1cc(C(=O)c2cn(C)c3ccccc23)ccc1Oc1ccccn1 [3b] | 3.99 | 1.92 | 123 to 124 | 
COc1ccc(C2(c3ccc(O)c(C)c3)COC2)cc1 [10a] | 3.07 | 3.22 | 140 to 143 | 
Cc1cc(C(=O)c2cn(C)c3ccccc23)ccc1-c1cnc(C(F)(F)F)nc1 [4b] | 4.3 | 4.21 | 185 to 187 | 
Cn1cc(C2(c3ccc(O)cc3)COC2)c2ccccc21 [6a] | 3.28 | 3.27 | 207 to 209 | 
COc1ccc(C(=O)c2ccc(-c3c[nH]nc3C(F)(F)F)c(C)c2)cc1 [9b] | 4.8 | 4.74 | 207 to 208 | 
COc1ccc(C2(c3ccc(OC4CNC4)c(C)c3)COC2)cc1 [C00007] |  |  |  | microsomal CLint at 1 h, 1 µM [1]: 7.5 µL/min/mg
Cc1cc(C2(c3cn(C)c4ccccc34)COC2)ccc1O [C00001] |  |  |  | microsomal CLint at 1 h, 1 µM [1]: 22.9 µL/min/mg
